Data from patent US10670605B2, “Cysteine reactive probes and uses thereof” (The Scripps Research Institute, priority 2015, dated 2020).
Structures can show the parent of a compound that is named as a salt.

Assays:
Assay type in all cases: cell-based
PKCθ C322 = biological target: T1, PKCθ C322 (Homo sapiens, UniProt Q04759); assay: isoTOP-ABPP of compound-treated primary human T cells; settings: 50 μM, 4 h
T1 construct: endogenous in cells; host or cells: primary human T cells
Description: (§1) Cells were lysed by sonication and diluted to a concentration of 2 mg protein/mL. Protein concentrations were measured with the Bio-Rad DC™ protein assay reagents A and B (5000113, 5000114; Bio-Rad). 500 μL of proteome sample was treated with 100 μM of IA-alkyne probe using […] of a 10 mM DMSO stock. The labeling reactions were incubated at room temperature for 1 h upon which time the samples were conjugated to isotopically-labeled TEV-cleavable tags (TEV tags) by copper-catalyzed azide-alkyne cycloaddition (CuACC or ‘click chemistry’). 60 μL of heavy click chemistry reaction mixture was added to the DMSO-treated control sample and 60 μL of the light reaction mixture was added to the compound-treated sample. The click reaction mixture comprised TEV tags (10 μL of a 5 mM stock, light (fragment treated) or heavy (DMSO treated)), CuSO4 (10 μL of a 50 mM stock in water), and TBTA (30 μL of a 1.7 mM stock in 4:1 tBuOH:DMSO). To this was added TCEP (10 μL of a 50 mM stock). The reaction was performed for 1 h at room temperature.
(§2) The resulting pellets were resuspended in 500 μL of cold methanol by sonication and the heavy and light samples combined pairwise. Combined pellets were then washed with cold MeOH, after which the pellet was solubilized in PBS containing 1.2% SDS by sonication. The samples were heated at 90° C. for 5 min and subjected to streptavidin enrichment of probe-labeled proteins, sequential on-bead trypsin and TEV digestion, and liquid chromatography-tandem mass spectrometry (LC-MS/MS) according to the published isoTOP-ABPP protocols.
(§3) The quantification of heavy/light ratios (isoTOP-ABPP ratios, R values) was performed by in-house CIMAGE software using default parameters (3 MS1's per peak and signal to noise threshold of 2.5). Site-specific engagement of electrophilic compounds was assessed by blockade of IA-alkyne probe labeling. […] Overlapping peptides with the same labeled cysteine (for example, same local sequence around the labeled cysteines but different charge states, MudPIT segment numbers, or tryptic termini) were grouped together, and the median ratio from each group was recorded as the R value of the peptide for that run.

PKCθ C14/C17 = biological target: T2, PKCθ C14/C17 (Homo sapiens, UniProt Q04759); assay: as above; settings: for R value (DMSO/DMF): PRKCQ C14 (Q04759)
T2 construct: endogenous in cells; host or cells: primary human T cells
Description: as §1, §2, §3

PRKDC C4045 = biological target: T3, PRKDC C4045 (Homo sapiens, UniProt P78527); assay: as above; settings: for R value (DMSO/DMF): PRKDC C4045 (P78527)
T3 construct: endogenous in cells; host or cells: primary human T cells
Description: as §1, §2, §3

primary human T cells = assay: IL-2 release (ELISA), anti-CD3 + anti-CD28 stimulated T cells; settings: anti-CD3, anti-CD28 stimulation, 8 h
Description: 96-well plates were coated with anti-CD3 (1:200; BioXcell) and anti-CD28 (1:500; 302933; BioLegend) in PBS (100 μL/well) overnight at 4° C. The plates were then washed twice with PBS and to each well was added 500,000 primary T cells in 100 μL of RPMI supplemented with 10% FBS, glutamine, and Pen-Strep. Cells were then treated with 100 μL of media containing compound at the indicated concentrations (final well volume of 200 μL). Cells were left at 37° C. in a 5% CO2 incubator for the indicated periods of time and harvested by centrifugation (500 g, 8 min, 4° C.), followed by washing with PBS. T cells were harvested and stimulated as described above. At the indicated time points, cell culture supernatants were collected and IL-2 levels were measured in clear microplates (991427; R&D Systems) according to the manufacturer's instructions (Human IL-2 DuoSet ELISA; DY202; R&D Systems). Plates were read in a Gemini SpectraMax 250 microplate reader set to 450 nm. Data represent mean±SE for four experiments per group.

USP48 C39 (Q86UV5) = biological target: T4, USP48 C39 (Q86UV5) (Homo sapiens, UniProt Q86UV5); assay: Competitive isoTOP-ABPP in situ; settings: fragment 2 at 200 μM, MDA-MB-231 cells
T4 sequence (Q86UV5 1-1035): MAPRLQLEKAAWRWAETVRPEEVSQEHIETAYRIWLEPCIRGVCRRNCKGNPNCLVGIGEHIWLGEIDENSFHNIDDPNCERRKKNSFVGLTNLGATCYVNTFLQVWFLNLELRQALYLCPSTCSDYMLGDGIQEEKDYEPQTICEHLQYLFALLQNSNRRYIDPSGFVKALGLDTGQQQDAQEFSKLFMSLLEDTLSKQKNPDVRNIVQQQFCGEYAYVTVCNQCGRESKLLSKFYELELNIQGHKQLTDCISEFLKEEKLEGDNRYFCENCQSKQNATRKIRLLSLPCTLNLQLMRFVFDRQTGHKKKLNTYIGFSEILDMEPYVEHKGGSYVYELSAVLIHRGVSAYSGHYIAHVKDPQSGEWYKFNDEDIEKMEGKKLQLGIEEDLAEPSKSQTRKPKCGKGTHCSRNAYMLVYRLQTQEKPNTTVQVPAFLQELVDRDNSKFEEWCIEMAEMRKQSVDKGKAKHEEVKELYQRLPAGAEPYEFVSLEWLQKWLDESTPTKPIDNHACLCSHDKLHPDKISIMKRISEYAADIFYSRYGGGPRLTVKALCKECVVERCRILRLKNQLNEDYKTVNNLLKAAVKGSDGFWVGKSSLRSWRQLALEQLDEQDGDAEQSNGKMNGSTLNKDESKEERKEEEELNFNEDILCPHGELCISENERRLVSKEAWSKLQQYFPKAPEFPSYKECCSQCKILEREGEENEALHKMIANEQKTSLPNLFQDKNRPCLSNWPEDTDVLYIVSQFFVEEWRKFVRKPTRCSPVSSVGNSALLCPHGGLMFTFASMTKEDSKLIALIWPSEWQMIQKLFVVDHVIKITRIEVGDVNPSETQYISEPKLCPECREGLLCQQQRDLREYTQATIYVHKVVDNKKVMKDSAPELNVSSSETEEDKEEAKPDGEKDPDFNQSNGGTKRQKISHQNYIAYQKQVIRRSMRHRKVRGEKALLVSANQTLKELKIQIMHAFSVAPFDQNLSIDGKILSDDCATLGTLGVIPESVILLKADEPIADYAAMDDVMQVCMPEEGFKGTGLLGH

MKI67 C903 (P46013) = MKI67 C903 (P46013) (Homo sapiens, UniProt P46013); assay: Competitive isoTOP-ABPP in situ; settings: fragment 2 at 200 μM, MDA-MB-231 cells

T2 sequence (Q04759 whole entry): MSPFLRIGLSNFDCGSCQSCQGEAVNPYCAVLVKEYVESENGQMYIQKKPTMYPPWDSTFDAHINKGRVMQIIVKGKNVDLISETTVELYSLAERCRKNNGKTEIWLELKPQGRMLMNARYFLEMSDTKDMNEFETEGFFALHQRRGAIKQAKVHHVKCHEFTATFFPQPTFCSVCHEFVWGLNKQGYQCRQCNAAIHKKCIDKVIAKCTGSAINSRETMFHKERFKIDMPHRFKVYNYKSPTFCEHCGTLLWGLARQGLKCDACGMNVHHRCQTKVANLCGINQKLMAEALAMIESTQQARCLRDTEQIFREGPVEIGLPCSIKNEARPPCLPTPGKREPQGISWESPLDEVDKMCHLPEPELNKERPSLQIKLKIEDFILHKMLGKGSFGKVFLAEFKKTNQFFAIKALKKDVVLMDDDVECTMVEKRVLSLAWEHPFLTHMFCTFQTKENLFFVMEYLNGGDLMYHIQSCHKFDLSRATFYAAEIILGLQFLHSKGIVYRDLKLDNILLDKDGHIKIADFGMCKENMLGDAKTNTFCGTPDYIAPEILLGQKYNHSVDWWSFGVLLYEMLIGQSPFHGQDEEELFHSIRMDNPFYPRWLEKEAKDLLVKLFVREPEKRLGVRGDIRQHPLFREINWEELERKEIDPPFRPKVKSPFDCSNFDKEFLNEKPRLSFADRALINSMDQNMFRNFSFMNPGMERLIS
T3 sequence (P78527 whole entry): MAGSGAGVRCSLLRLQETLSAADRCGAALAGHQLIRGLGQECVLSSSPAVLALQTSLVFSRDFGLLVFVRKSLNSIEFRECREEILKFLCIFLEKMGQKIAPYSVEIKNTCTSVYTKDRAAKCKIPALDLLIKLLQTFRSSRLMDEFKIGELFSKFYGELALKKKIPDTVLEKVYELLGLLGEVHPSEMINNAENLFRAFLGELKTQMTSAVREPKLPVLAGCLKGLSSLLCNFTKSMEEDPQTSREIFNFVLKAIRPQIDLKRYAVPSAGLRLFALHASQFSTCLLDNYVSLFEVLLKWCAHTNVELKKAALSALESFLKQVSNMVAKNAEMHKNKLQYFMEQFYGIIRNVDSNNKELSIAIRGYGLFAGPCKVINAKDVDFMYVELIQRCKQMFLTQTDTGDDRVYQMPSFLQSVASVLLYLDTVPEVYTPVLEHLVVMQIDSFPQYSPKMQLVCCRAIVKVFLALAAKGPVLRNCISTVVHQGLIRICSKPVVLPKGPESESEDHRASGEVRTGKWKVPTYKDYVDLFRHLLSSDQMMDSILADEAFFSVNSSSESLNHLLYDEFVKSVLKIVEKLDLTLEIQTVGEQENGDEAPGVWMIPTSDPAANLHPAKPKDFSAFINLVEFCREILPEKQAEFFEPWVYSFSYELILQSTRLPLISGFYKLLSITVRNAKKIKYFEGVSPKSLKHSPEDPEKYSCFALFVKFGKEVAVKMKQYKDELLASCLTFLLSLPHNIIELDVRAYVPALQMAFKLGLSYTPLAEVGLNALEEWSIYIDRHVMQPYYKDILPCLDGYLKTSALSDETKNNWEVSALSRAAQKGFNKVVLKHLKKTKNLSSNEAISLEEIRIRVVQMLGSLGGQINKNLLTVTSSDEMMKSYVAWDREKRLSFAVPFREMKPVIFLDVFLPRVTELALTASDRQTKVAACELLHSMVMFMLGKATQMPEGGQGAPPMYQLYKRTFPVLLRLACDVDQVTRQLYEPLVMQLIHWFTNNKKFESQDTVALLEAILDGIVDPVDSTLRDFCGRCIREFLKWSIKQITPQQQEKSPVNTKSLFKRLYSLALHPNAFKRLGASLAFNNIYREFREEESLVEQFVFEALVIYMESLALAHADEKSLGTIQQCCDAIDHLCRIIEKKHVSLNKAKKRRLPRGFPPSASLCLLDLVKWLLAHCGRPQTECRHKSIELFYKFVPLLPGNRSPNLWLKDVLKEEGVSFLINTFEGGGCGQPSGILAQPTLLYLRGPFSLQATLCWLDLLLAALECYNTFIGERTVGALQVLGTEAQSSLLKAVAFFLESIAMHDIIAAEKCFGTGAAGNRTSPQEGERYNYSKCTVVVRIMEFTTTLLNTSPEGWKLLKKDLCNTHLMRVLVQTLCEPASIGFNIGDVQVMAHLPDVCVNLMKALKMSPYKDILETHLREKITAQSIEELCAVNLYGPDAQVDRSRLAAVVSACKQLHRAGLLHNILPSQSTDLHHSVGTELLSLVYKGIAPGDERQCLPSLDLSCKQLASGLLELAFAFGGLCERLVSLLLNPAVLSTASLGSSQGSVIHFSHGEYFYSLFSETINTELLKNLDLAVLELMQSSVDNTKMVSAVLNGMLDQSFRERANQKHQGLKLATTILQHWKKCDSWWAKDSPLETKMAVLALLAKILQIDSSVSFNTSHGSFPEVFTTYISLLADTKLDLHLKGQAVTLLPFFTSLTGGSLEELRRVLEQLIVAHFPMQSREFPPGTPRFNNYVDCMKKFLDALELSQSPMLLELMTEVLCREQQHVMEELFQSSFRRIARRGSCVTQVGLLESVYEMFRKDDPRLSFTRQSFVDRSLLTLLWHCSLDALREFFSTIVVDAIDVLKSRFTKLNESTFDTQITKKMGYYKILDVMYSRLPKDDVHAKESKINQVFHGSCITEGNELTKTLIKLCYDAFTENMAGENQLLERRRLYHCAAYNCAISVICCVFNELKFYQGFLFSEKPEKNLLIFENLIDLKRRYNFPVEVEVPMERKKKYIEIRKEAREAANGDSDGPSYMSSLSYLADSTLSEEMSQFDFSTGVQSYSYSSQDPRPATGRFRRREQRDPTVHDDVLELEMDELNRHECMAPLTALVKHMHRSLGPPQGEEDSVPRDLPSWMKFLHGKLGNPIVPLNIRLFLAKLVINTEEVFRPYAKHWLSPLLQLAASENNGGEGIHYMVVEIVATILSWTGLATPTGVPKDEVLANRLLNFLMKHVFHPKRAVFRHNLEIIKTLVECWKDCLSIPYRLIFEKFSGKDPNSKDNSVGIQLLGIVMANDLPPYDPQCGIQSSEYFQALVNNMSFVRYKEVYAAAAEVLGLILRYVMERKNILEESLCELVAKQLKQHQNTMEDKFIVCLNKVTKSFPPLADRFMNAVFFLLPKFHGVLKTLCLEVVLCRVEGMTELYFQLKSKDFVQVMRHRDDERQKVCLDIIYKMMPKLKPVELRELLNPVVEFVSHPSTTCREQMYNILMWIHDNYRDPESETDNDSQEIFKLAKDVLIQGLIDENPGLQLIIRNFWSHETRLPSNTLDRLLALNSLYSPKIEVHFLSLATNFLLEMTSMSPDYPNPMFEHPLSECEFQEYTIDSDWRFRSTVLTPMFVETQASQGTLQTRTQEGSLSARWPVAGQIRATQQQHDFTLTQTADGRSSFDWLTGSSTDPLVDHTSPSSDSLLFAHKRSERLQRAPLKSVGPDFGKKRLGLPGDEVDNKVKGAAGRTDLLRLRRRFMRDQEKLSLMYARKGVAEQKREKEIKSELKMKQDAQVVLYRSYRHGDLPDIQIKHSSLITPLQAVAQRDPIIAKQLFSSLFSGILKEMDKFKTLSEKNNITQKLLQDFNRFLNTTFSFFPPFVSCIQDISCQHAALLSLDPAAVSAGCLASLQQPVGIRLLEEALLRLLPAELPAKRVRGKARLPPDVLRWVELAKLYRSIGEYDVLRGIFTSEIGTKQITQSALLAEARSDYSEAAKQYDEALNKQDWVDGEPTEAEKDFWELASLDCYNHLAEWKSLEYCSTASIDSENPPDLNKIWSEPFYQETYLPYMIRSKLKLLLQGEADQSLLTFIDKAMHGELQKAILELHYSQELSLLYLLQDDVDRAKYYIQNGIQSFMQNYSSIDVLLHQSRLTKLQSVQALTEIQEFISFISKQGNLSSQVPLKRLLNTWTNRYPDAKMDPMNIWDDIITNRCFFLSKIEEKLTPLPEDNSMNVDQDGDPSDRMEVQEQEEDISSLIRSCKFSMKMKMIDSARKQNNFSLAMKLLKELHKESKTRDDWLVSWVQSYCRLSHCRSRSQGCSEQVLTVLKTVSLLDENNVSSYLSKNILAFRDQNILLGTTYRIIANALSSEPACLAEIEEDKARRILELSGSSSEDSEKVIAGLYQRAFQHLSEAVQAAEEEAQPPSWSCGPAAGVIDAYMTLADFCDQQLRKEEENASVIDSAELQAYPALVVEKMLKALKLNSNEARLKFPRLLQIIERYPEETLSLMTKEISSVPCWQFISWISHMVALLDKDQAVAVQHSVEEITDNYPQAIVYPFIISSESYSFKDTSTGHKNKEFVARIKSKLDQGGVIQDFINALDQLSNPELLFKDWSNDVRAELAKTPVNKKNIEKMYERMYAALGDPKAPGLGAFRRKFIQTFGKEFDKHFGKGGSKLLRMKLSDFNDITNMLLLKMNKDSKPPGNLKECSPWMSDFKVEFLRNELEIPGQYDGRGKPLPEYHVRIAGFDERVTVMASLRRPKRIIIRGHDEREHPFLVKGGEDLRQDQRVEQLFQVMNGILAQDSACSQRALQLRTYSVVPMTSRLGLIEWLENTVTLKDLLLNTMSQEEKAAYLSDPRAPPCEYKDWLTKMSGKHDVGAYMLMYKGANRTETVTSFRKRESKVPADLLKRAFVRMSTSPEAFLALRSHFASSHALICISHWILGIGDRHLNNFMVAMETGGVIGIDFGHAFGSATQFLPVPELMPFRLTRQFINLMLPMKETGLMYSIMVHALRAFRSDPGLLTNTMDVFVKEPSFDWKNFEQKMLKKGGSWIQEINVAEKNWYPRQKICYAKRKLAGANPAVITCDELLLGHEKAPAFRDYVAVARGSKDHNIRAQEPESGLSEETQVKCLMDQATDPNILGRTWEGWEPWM
T1 sequence (Q04759 whole entry): as the sequence (Q04759 whole entry) above

SMILES: COC(=O)/C=C/C(=O)OC [DMF, dimethyl fumarate]
- IA-alkyne reactivity of PKCθ C322 (PKCθ C322): unaffected
- IA-alkyne reactivity of PKCθ C14 and C17 (PKCθ C14/C17; 50 μM, 4 h): blocked
- R value (DMSO/DMF) (PKCθ C14/C17; DMF 10 μM 4h): 1.62
- R value (DMSO/DMF) (PKCθ C14/C17; DMF 25 μM 4h): 3.29
- R value (DMSO/DMF) (PKCθ C14/C17; DMF 50 μM 2h): 2.92
- R value (DMSO/DMF) (PKCθ C14/C17; DMF 50 μM 4h): 4.21
- IA-alkyne reactivity of PRKDC C4045 (PRKDC C4045; 50 μM, 4 h): blocked
- R value (DMSO/DMF) (PRKDC C4045; DMF 50 μM 1h): 4.14
- R value (DMSO/DMF) (PRKDC C4045; DMF 50 μM 2h): 10.53
- secretion of IL-2 (primary human T cells): strongly inhibited

SMILES: COc1ccc2c(c1)CCCN2C(=O)CCl [compound 2]
- isoTOP-ABPP reactivity profile (ratio) 2_200 μM_in-situ_231 (USP48 C39 (Q86UV5)): 20.0
- isoTOP-ABPP reactivity profile (ratio) 2_200 μM_in-situ_231 (MKI67 C903 (P46013)): 20.0
